In article PMC10120551, “Novel Glu-based pyrazolo[3,4-d]pyrimidine analogues: design, synthesis and biological evaluation as DHFR and TS dual inhibitors” (Journal of Enzyme Inhibition and Medicinal Chemistry, 2023):

Legend:
SF-539 = conditions: SF-539, CNS cancer; five-dose 0.01–100 µM
786-0 = experiment: cells; conditions: Homo sapiens
A498 = experiment: cells; conditions: Homo sapiens
IGROV1 = conditions: IGROV1, Ovarian cancer; five-dose 0.01–100 µM
MOLT-4 [1] = experiment: cells; conditions: Homo sapiens
[2] = test system: HSF (Normal human skin fibroblast) cells; experiment: MTT cytotoxicity assay; assay type: cell-based; conditions: HSF normal fibroblasts, 48 h, mean ± SD from triplicates
Procedure: The results hinted that 6i elicited stronger cytotoxicity and higher selectivity for cancer than normal cells.
The MTT assay was carried out according to the procedure cited earlier. Briefly, in a 96-well plate, either cancer or normal cells were seeded (10^6 cells/cm^2; 100 µL/well) and incubated for 12 h at 37 °C and CO2 (5%), then serial dilutions of compound 6i were added and incubated for 48 h using DMSO control (0.5% V/V). MTT (3-(4,5-dimethylthiazoyl)-2,5-diphenyl-tetrazolium bromide; Cat. No. M-5655) 5 mg/mL was then added. After 4 h incubation, the formed MTT formazan crystals were solubilised by 10% Triton X-100 plus 0.1 N HCl in anhydrous isopropanol. The absorbance was read using a Bioline plate reader at λ570–630 nm[25–29]. The selectivity of 6i towards HSF cells was also determined as follows[30]^,[31]: SI=IC50HSF cells/IC50of cancer cells

U251 = experiment: cells; conditions: Homo sapiens
HCT-15 [3] = experiment: cells; conditions: Homo sapiens
ACHN [4] = conditions: Renal cancer, five-dose 0.01–100 µM
SK-OV-3 = conditions: SK-OV-3, Ovarian cancer; five-dose 0.01–100 µM
UO-31 = conditions: UO-31, Renal cancer; five-dose 0.01–100 µM
OVCAR-4 = conditions: OVCAR-4, Ovarian cancer; five-dose 0.01–100 µM
PC-3 [5] = experiment: cells; conditions: Homo sapiens
PC-3 [6] = conditions: PC-3, Prostate cancer; five-dose 0.01–100 µM
SK-MEL-28 = experiment: cells; conditions: Homo sapiens
COLO 205 = experiment: cells; conditions: Homo sapiens
OVCAR-3 = conditions: OVCAR-3, Ovarian cancer; five-dose 0.01–100 µM
HCT-15 [7] = conditions: HCT-15, Colon cancer; five-dose 0.01–100 µM
SNB-19 = experiment: cells; conditions: Homo sapiens
RXF 393 [8] = conditions: RXF 393, Renal cancer; five-dose 0.01–100 µM
OVCAR-8 = conditions: OVCAR-8, Ovarian cancer; five-dose 0.01–100 µM
UACC-62 = experiment: cells; conditions: Homo sapiens
MOLT-4 [9] = conditions: MOLT-4, Leukaemia; five-dose 0.01–100 µM
SW-620 = experiment: cells; conditions: Homo sapiens
HCT-116 = experiment: cells; conditions: Homo sapiens
DU-145 = experiment: cells; conditions: Homo sapiens
HS 578 T = conditions: Breast cancer, five-dose 0.01–100 µM
MDA-MB-231/ATCC = experiment: cells; conditions: Homo sapiens
HCC-2998 = conditions: HCC-2998, Colon cancer; five-dose 0.01–100 µM
UACC-257 = experiment: cells; conditions: Homo sapiens
SN12C = experiment: cells; conditions: Homo sapiens
ACHN [10] = experiment: cells; conditions: Homo sapiens
MDA-MB-468 = experiment: cells; conditions: Homo sapiens
RXF 393 [11] = experiment: cells; conditions: Homo sapiens
MCF7 = experiment: cells; conditions: Homo sapiens

CCOC(=O)CC[C@H](NC(=O)c1ccc(NC(=O)Cn2cnc3c(c(C)nn3-c3ccc(Br)cc3)c2=O)cc1)C(=O)OCC [Compound 6i]
TGI (SF-539): 33.0 µM | GI50 (786-0; 786-0): 8.66 µM | CC50 (786-0; 786-0, read-out: LC50): > 100 µM | GI50 (A498; A498): 24.9 µM | CC50 (A498; A498, read-out: LC50): 93 µM | TGI (IGROV1): 74.2 µM | GI50 (MOLT-4 [1]; MOLT-4): > 100 µM | CC50 (MOLT-4 [1]; MOLT-4, read-out: LC50): > 100 µM | IC50 [2]: 48.5 ± 2.43 µM | GI50 (U251; U-251): 13.2 µM | CC50 (U251; U-251, read-out: LC50): > 100 µM | GI50 (HCT-15 [3]; HCT-15): 26 µM | CC50 (HCT-15 [3]; HCT-15, read-out: LC50): > 100 µM | TGI (ACHN [4]): 34.3 µM | TGI (SK-OV-3): 67.3 µM | TGI (UO-31): 55.9 µM | TGI (OVCAR-4): 32.1 µM | GI50 (PC-3 [5]; PC-3): 5.79 µM | CC50 (PC-3 [5]; PC-3, read-out: LC50): 47.7 µM | TGI (PC-3 [6]): 19.4 µM | GI50 (SK-MEL-28; SK-MEL-28): 10.1 µM | CC50 (SK-MEL-28; SK-MEL-28, read-out: LC50): 50.2 µM | GI50 (COLO 205; COLO 205): 14 µM | CC50 (COLO 205; COLO 205, read-out: LC50): 96 µM | TGI (OVCAR-3): 61.3 µM | TGI (HCT-15 [7]): >100 µM | GI50 (SNB-19; SNB-19): 12.1 µM | CC50 (SNB-19; SNB-19, read-out: LC50): 61.3 µM | TGI (RXF 393 [8]): 50.9 µM | TGI (OVCAR-8): >100 µM | GI50 (UACC-62; UACC-62): 13.3 µM | CC50 (UACC-62; UACC-62, read-out: LC50): 77.8 µM | TGI (MOLT-4 [9]): >100 µM | GI50 (SW-620; SW-620): 8.98 µM | CC50 (SW-620; SW-620, read-out: LC50): > 100 µM | GI50 (HCT-116; HCT-116): 9.85 µM | CC50 (HCT-116; HCT-116, read-out: LC50): > 100 µM | GI50 (DU-145; DU-145): 7.47 µM | CC50 (DU-145; DU-145, read-out: LC50): > 100 µM | TGI (HS 578 T): 45.7 µM | GI50 (MDA-MB-231/ATCC; MDA-MB-231): 11.5 µM | CC50 (MDA-MB-231/ATCC; MDA-MB-231, read-out: LC50): 62.5 µM | TGI (HCC-2998): >100 µM | GI50 (UACC-257; UACC-257): 31.5 µM | CC50 (UACC-257; UACC-257, read-out: LC50): > 100 µM | GI50 (SN12C): 29.2 µM | CC50 (SN12C; read-out: LC50): > 100 µM | GI50 (ACHN [10]): 15.1 µM | CC50 (ACHN [10]; read-out: LC50): 78.3 µM | GI50 (MDA-MB-468; MDA-MB-468): 13.5 µM | CC50 (MDA-MB-468; MDA-MB-468, read-out: LC50): > 100 µM | GI50 (RXF 393 [11]; RXF 393): 15.9 µM | CC50 (RXF 393 [11]; RXF 393, read-out: LC50): > 100 µM | GI50 (MCF7; MCF7): 3.93 µM | CC50 (MCF7; MCF7, read-out: LC50): 59.4 µM
